From US20240384233A1, “Method for Producing Cardiomyocytes by Means of Reprogramming” (Plastech Pharmaceutical Technology Co., Ltd., priority 2020, published 2024)

Tests used:
[1] = system: neonatal mouse skin fibroblasts (NSF) and mouse cardiac fibroblasts (nCFs); assay: Substitute for 2C: small molecules of the same signaling pathway (beating cells in GMT NSF, cTnT positive cells in MT nCF); type: cell-based; settings: GMT NSF D18 beating, MT nCF four weeks cTnT; for replacement of Baricitinib (beating cells, number of cTnT-positive cells): combined with SB431542; for replacement of SB431542 (beating cells, number of cTnT-positive cells): combined with Baricitinib
Description: Specifically, at D-2 (day-2), Myh6-mCherry neonatal mouse skin fibroblasts (NSF) were plated; at D-1 (day-1),the cells were infected with three lentiviruses expressing Gata4, Mef2c and Tbx5 (GMT), respectively; at D0 (day 0), the media were replaced with reprogramming media added with small molecules, and replaced every 3-4 days; andat D18, beating cells were counted. In addition, at D-2, WT mouse cardiac fibroblasts (nCFs) were plated, and residual cardiomyocytes were removed with CD90.2 MACS; at D-1, the cells were infected with virus expressing Mef2c+Tbx5 (MT); at D0, the media were replaced with reprogramming media added with small molecules, and replaced every 3 days; and after four weeks, cTnT positive cells were counted.2C was used as a positive control.
SB431542 is an inhibitor of TGFβ signaling pathway, and this example analyzed whether other small molecules of this signaling pathway could be combined with Baricitinib, including RepSox, GW788388, SD-208, LY364947, Y-27632, LDN-193189, LY2109761 and Galunisertib. Baricitinib is an inhibitor of Jak pathway, and this example analyzed whether other small molecules of this signaling pathway could be combined with SB431542, including Filgotinib, WP1066, Gandotinib, Ruxolitinib and AZD1480. […] It can be seen that the TGFβ signaling pathway is important for reprogramming into cardiomyocytes; however, at the same time, Baricitinib cannot be replaced by most other compounds targeting Jak-Stat.

[2] = system: Myh6-mCherry neonatal mouse skin fibroblasts (NSF); assay: GMT-mediated reprogramming of Myh6-mCherry neonatal mouse skin fibroblasts into induced cardiomyocyte like cells (iCM); type: cell-based; settings: for optimal action concentration: cTnT staining, titrated on 2 μM of the other small molecule of 2C
Description: Reprogramming steps: at d-2, plating cells; at d-1, infecting with virus; andat d0, removing virus-containing medium, and replacing with reprogramming medium. Beating cell count and immunofluorescence assay were performed after approximately 3 weeks.
iCM reprogramming medium: DMEM/M199 (4:1) supplemented with 10% KnockOut serum replacement (KSR), 10% FBS, 1% GlutaMAX, 1% MEM NEAA, 1% Pen Strep, 2 μg/ml Dox and small molecule mixture 2C (2 μM SB431542, 2 μM Baricitinib).
At D-2, 24-well plate was coated with 0.1% gelatin and then placed in a cell culture incubator at 37° C. for 30 min, then the gelatin was aspirated, and the 24-well plate was inoculated with 80,000 cells per well. At D-1, MEF medium containing 6 ng/μl polybrene was replaced, the cells were infected with FU-tet-o-Gata4, FU-tet-o-Mef2c, FU-tet-o-Tbx5, FUdeltaGW-rtTA, 200 μl unconcentrated virus per well per virus. At D0, the medium was replaced with iCM reprogramming medium, and replaced every 3-4 days.
Screening was performed on Myh6-mCherry neonatal mouse dermal fibroblasts. Small molecule library was screened simultaneously with transfection of three genes of GMT (Gata4, Mef2c and Tbx5) to quantify the effect of small molecules on reprogramming by observing the ratio and brightness of reporter genes, as shown in FIG. 1A. Specifically, at D-2 (day-2), Myh6-mCherry neonatal mouse skin fibroblasts (NSF) were plated; at D-1 (day-1), the cells were infected with three lentiviruses expressing Gata4, Mef2c and Tbx5 (GMT), respectively; and at D0 (day 0), the media were replaced with reprogramming media added with small molecules, and replaced every 3-4 days. After three weeks of induction, the number of Myh6-mCherry positive cells was observed and counted to screen for small molecules that promoted the induced cardiomyocyte like cells (iCM).
The optimal action concentration and optimal action time of 2C were then further investigated. […] First, the optimal action concentration of SB431542 was determined by cardiomyocyte marker cTnT staining after adding different concentrations of SB431542 based on 2 μM Baricitinib. […]

[3] = system: WT mouse cardiac fibroblasts (nCFs); assay: Replacement of Baricitinib in combination with SB431542 on the basis of MT transduction; type: cell-based; settings: three weeks
From the text: In addition, some small anti-inflammatory molecules have been reported to increase reprogramming-induced cardiomyocyte efficiency, such as Dexamethasone or Nabumetone.

[4] = system: neonatal mouse fibroblasts; assay: Tyk2 small molecule inhibitors: reprogramming of neonatal mouse fibroblasts into cardiomyocytes (MT+SB431542); type: cell-based; settings: for beating cardiomyocytes: 2 uM SB431542; for cTnI and a-actinin positive cells: 2 uM SB431542, Tyk2 inhibitor 1, 2, 5 and 10 uM
Description: Neonatal suckling mice within 24 h were ordered from Vital River. In an ultraclean bench, heart tissue was taken, cut with sterilized surgical instruments, added with an appropriate amount of Type II Collagenase (1 mg/mL), digested at 37° C. constant temperature, after full digestion, washed twice with IMDM (20% FBS+1% PS+1% NEAA+1% Glu-Max) medium, resuspended with the medium, and plated in a 10 cm culture dish. After 24 h, fresh IMDM was added, and on the fourth day, CD90.2 (anti-Thy1+) was used for MACS separation. The sorted cells were plated in a 24-well plate 2-5×10^5/well), and infected with Fu-tet-o-Mef2c-T2A-Tbx5 virus and rtTA 24 h after plating. After 24 h, the medium was replaced with reprogramming medium, and replaced every 3 days. Beating cells could be seen at the 4th week, and a large number of cTnI and a-actinin could be seen by immunofluorescence staining.
10% FBS, 10% KSR, DMEM/M199 [4:1], 1% PS+1% NEAA+1% Glu-Max, 2 uM SB431542, Tyk2 inhibitor (BMS-986165 or PF-06826647), replaced every 3 days. Tyk2 inhibitor was used at 1, 2, 5 and 10 uM, and the optimal concentration is shown in the concentration gradient curve.

[5] = system: neonatal mouse fibroblasts; assay: Cardiomyocyte reprogramming with Tyk2 knockdown/knockout plus MT and C1; type: cell-based; settings: combined with transcription factor MT and C1
From the text: (§1) Briefly, shRNAs targeting Tyk2 gene (shTyk2#1, shTyk2#2, shTyk2#3, shTyk2#4, shTyk2#5) were designed, introduced into neonatal mouse fibroblasts together with transcription factor combination MT, and then induced in reprogramming medium containing C1 to test the efficiency of reprogramming into cardiomyocyte-like cells.
To further confirm the role of specific inhibition of Tyk2 in cardiomyocyte reprogramming, the inventors further designed five different sgRNAs targeting Tyk2 gene, knocked out the Tyk2 gene of neonatal mouse fibroblasts using CRISPR technique, and tested the efficiency of cardiomyocyte reprogramming in the presence of transcription factor MT and C1, respectively. sgNT was a control for non-targeted Tyk2.

Tyk2 gene = assay: Knockdown effect of shRNAs on Tyk2 expression; type: cell-based, mouse; settings: FIG. 21C
From the text: as §1

Cc1cc(Nc2nc(N[C@@H](C)c3ncc(F)cn3)ncc2Cl)n[nH]1 [AZD1480]
replacement of Baricitinib (beating cells, number of cTnT-positive cells) [1]: only its structural analogue Ruxolitinib could be used for replacement

CCS(=O)(=O)N1CC(CC#N)(n2cc(-c3ncnc4[nH]ccc34)cn2)C1 [Baricitinib]
optimal action concentration [2]: 2 µM

O=C(Nc1nc2cccc(-c3ccc(CN4CCS(=O)(=O)CC4)cc3)n2n1)C1CC1 [Filgotinib]
replacement of Baricitinib (beating cells, number of cTnT-positive cells) [1]: only its structural analogue Ruxolitinib could be used for replacement

O=C(NC1CCOCC1)c1ccc(-c2cc(-c3c[nH]nc3-c3ccccn3)ccn2)cc1 [GW788388]
replacement of SB431542 (beating cells, number of cTnT-positive cells) [1]: could be effectively replaced by small molecules of the same signaling pathway

Cc1cccc(-c2nn3c(c2-c2ccnc4ccc(C(N)=O)cc24)CCC3)n1 [Galunisertib]
replacement of SB431542 (beating cells, number of cTnT-positive cells) [1]: could be effectively replaced by small molecules of the same signaling pathway

Cc1cc(Nc2cc(CN3CCOCC3)c3nc(C)c(Cc4ccc(Cl)cc4F)n3n2)n[nH]1 [Gandotinib]
replacement of Baricitinib (beating cells, number of cTnT-positive cells) [1]: only its structural analogue Ruxolitinib could be used for replacement

c1ccc2c(-c3cnn4cc(-c5ccc(N6CCNCC6)cc5)cnc34)ccnc2c1 [LDN-193189]
replacement of SB431542 (beating cells, number of cTnT-positive cells) [1]: could be effectively replaced by small molecules of the same signaling pathway

c1ccc(-c2[nH]ncc2-c2ccnc3ccccc23)nc1 [LY364947]
replacement of SB431542 (beating cells, number of cTnT-positive cells) [1]: could be effectively replaced by small molecules of the same signaling pathway

c1ccc(-c2nn3c(c2-c2ccnc4cc(OCCN5CCOCC5)ccc24)CCC3)nc1 [LY2109761]
replacement of SB431542 (beating cells, number of cTnT-positive cells) [1]: could be effectively replaced by small molecules of the same signaling pathway

COc1ccc2cc(CCC(C)=O)ccc2c1 [Nabumetone]
replacement of the effect of Baricitinib [3]: could not replace the effect of Baricitinib

Cn1cc(-c2cn3nccc3c(-c3cnn([C@]4(CC#N)C[C@@H](C#N)C4)c3)n2)cn1 [PF-06826647]
beating cardiomyocytes [4]: could induce beating cardiomyocytes from fibroblasts | cTnI and a-actinin positive cells [4]: could induce a number of cardiac specific markers cTnI and a-actinin positive cells from fibroblasts

Cc1cccc(-c2[nH]ncc2-c2ccc3ncccc3n2)n1 [RepSox]
replacement of SB431542 (beating cells, number of cTnT-positive cells) [1]: could be effectively replaced by small molecules of the same signaling pathway

NC(=O)c1ccc(-c2nc(-c3ccc4c(c3)OCO4)c(-c3ccccn3)[nH]2)cc1 [SB431542]
optimal action concentration [2]: 2 µM | efficiency of reprogramming induced cardiomyocytes (number of Myh6-mCherry positive cells) ([2]; three weeks of induction): increase the efficiency of reprogramming induced cardiomyocytes

Fc1ccc(Cl)cc1-c1nc(Nc2ccncc2)c2nccnc2n1 [SD-208]
replacement of SB431542 (beating cells, number of cTnT-positive cells) [1]: could be effectively replaced by small molecules of the same signaling pathway

C[C@H](NC(=O)/C(C#N)=C/c1cccc(Br)n1)c1ccccc1 [WP1066]
replacement of Baricitinib (beating cells, number of cTnT-positive cells) [1]: only its structural analogue Ruxolitinib could be used for replacement

C[C@@H](N)[C@H]1CC[C@H](C(=O)Nc2ccncc2)CC1 [Y-27632]
replacement of SB431542 (beating cells, number of cTnT-positive cells) [1]: could be effectively replaced by small molecules of the same signaling pathway

BMS-986165
beating cardiomyocytes [4]: could induce beating cardiomyocytes from fibroblasts | cTnI and a-actinin positive cells [4]: could induce a number of cardiac specific markers cTnI and a-actinin positive cells from fibroblasts

shTyk2#1: shRNA targeting Tyk2 gene, SEQ ID NO: 1 (CCCATCTTCATTAGCTGGGAACTCGAGTTCCCAGCTAATGAAGATGGG)
efficiency of cardiomyocyte reprogramming (cTnI and a-actinin immunofluorescence) [5]: could achieve similar efficiency of cardiomyocyte reprogramming as small molecule combination 2C | knockdown of Tyk2 expression (Tyk2 gene): could knockdown the expression of Tyk2

shTyk2#2: shRNA targeting Tyk2 gene, SEQ ID NO: 2 (CCCTTCATCAAGCTAAGTGATCTCGAGATCACTTAGCTTGATGAAGGG)
efficiency of cardiomyocyte reprogramming (cTnI and a-actinin immunofluorescence) [5]: could achieve similar efficiency of cardiomyocyte reprogramming as small molecule combination 2C | knockdown of Tyk2 expression (Tyk2 gene): could knockdown the expression of Tyk2

shTyk2#3: shRNA targeting Tyk2 gene, SEQ ID NO: 3 (CCACTTTAAGAATGAGAGCTTCTCGAGAAGCTCTCATTCTTAAAGTGG)
efficiency of cardiomyocyte reprogramming (cTnI and a-actinin immunofluorescence) [5]: could achieve similar efficiency of cardiomyocyte reprogramming as small molecule combination 2C | knockdown of Tyk2 expression (Tyk2 gene): could knockdown the expression of Tyk2
